Results from patent US20200131156A1, “ARYLSULFONYLPYROLECARBOXAMIDE DERIVATIVES AS Kv3 POTASSIUM CHANNEL ACTIVATORS” (H. Lundbeck A/S, priority 2018, published 2020).

Target: T1, hKv3.1b (Homo sapiens, UniProt P48547)
T1 construct: expressed in transfected cells
T1 sequence (P48547 1-585 isoform P48547-2): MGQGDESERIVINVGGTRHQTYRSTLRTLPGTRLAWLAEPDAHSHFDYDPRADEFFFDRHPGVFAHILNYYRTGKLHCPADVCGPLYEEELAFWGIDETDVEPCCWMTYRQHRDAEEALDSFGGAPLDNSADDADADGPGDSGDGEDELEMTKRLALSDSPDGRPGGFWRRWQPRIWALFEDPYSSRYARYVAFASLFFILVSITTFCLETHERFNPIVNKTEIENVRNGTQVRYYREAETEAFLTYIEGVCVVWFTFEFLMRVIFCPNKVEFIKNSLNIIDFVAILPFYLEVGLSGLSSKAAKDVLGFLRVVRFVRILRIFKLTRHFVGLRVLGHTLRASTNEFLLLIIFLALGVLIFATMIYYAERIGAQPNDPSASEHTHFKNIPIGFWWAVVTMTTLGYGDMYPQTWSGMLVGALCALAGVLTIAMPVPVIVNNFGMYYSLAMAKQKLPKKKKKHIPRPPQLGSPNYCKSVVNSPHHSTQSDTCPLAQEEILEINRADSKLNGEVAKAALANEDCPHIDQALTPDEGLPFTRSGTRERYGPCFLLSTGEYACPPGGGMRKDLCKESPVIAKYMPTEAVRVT
Assay: Automated patch clamp (QPatch-16x) on HEK-293 cells stably expressing hKv3.1b
Assay type: cell-based
Details: for ECdelta5 mV: concentration needed to shift the activation threshold 5 mV; for Threshold Shift: maximum absolute hyperpolarizing shift of activation threshold at tested concentrations 0.37-30 μM
Method: HEK-293 cells stably expressing hKv3.1b were used for the experiments. Cells were cultured in DMEM medium supplemented with 10% Fetal Bovine Serum, 100 ug/mL Geneticidin and 100 u/mL Penicillin/Streptomycin (all from Gibco). Cells were grown to 80-90% confluency at 37° C. and 5% CO2. On the day of the experiment the cells were detached from the tissue culture flasks by Detachin, resuspended in serum free medium containing 25 mM HEPES and transferred to the cell hotel of the QPatch. The cells were used for experiments 0-5 hours after detachment.
Patch-clamp recordings were performed using the automated recording system QPatch-16x (Sophion Bioscience, Denmark). Cells were centrifuged, SFM removed and the cells were resuspended in extracellular buffer containing (in mM): 145 NaCl, 4 KCl, 1 MgCl2, 2 CaCl2, 10 HEPES and 10 glucose (added fresh on the day of experiment); pH 7.4 adjusted with NaOH, 305 mOsm adjusted with sucrose.
Single cell whole-cell recordings were carried out using an intracellular solution containing (in mM): 120 KCl, 32.25/10 KOH/EGTA, 5.374 CaCl2, 1.75 MgCl2, 10 HEPES, 4 Na2ATP (added fresh on the day), pH 7.2 adjusted with KOH, […] adjusted with sucrose. Cell membrane potentials were held at −80 mV and currents were evoked by voltage steps (200 ms duration) from −70 mV to +10 mV (in 10 mV increments). Vehicle (0.33% DMSO) or increasing concentration of compound (I) were applied and the voltage protocol was run 3 times (resulting in 3 min cpd incubation time). Five increasing concentrations of compound (I) were applied to each cell.
Leak subtraction protocol was applied at −33% of the sweep amplitude, and serial resistance values were constantly monitored.
Any cell where serial resistance exceeded 25 MOhm, membrane resistance less than 200 MOhm or current size at −10 mV less than 200 pA was eliminated from the subsequent analysis.
Data analysis was performed using Sophion's QPatch assay software in combination with Microsoft Excel™ (Redmond, Wash., USA). Current voltage relationships were plotted from the peak current at the individual voltage steps normalized to the vehicle addition at 10 mV. The voltage threshold for channel activation was defined as 5% activation of the peak current at 10 mV in presence of vehicle. The activity of the compounds was described as the ability to shift this current voltage relationship to more hyperpolarized potentials and is given as the maximum absolute shift possible at the tested concentrations (0.37, 1.11, 3.33, 10, 30 μM). Concentration response curves were plotted from the threshold shift at the individual concentrations and were fitted excel fit model 205 sigmoidal dose-response model (fit=A+((B−A)/1+((C/x)^D)))), where A is the minimum value, B the maximum value, C the EC50 value and D the slope of the curve. The concentration needed to shift the threshold 5 mV was readout from this curve (ECdelta5 mV).

**Q.** `Cc1ccc(S(=O)(=O)n2ccc(C(=O)NCc3cncnc3)c2)cc1` [Compound 58, 1-(4-methylbenzene-1-sulfonyl)-N-[(pyrimidin-5-yl)methyl]-1H-pyrrole-3-carboxamide] was tested. Which “ECdelta5 mV” value did it give?
**A.** The value was 2200 nM.

**Q.** What about the “Threshold Shift” value of the same molecule?
**A.** Its value is 22 mV.

**Q.** With `O=C(NCc1cnccn1)c1ccn(S(=O)(=O)c2ccccc2F)c1` [Compound 59, 1-(2-fluorobenzene-1-sulfonyl)-N-[(pyrazin-2-yl)methyl]-1H-pyrrole-3-carboxamide] as the molecule, how does the “ECdelta5 mV” value read?
**A.** Its value is 2000 nM.

**Q.** And the “Threshold Shift” value?
**A.** The value was 14 mV.

**Q.** Which “ECdelta5 mV” value does the source give for `Cc1cccc(S(=O)(=O)n2ccc(C(=O)NCc3ccn(C)n3)c2)c1` [Compound 60, 1-(3-methylbenzene-1-sulfonyl)-N-[(1-methyl-1H-pyrazol-3-yl)methyl]-1H-pyrrole-3-carboxamide] here?
**A.** The value was 2200 nM.

**Q.** What about the “Threshold Shift” value of the same molecule?
**A.** Its value is 16 mV.

**Q.** For `Cc1cccc(S(=O)(=O)n2ccc(C(=O)NCc3nc(C)no3)c2)c1` [Compound 61, 1-(3-methylbenzene-1-sulfonyl)-N-[(3-methyl-1,2,4-oxadiazol-5-yl)methyl]-1H-pyrrole-3-carboxamide], which “ECdelta5 mV” value is on record?
**A.** Its value is 5900 nM.

**Q.** What about the “Threshold Shift” value of the same molecule?
**A.** The value was 12 mV.

**Q.** What does the source list for `Cc1cnc(CNC(=O)c2ccn(S(=O)(=O)c3cccc(C)c3)c2)nc1` [Compound 62, 1-(3-methylbenzene-1-sulfonyl)-N-[(5-methylpyrimidin-2-yl)methyl]-1H-pyrrole-3-carboxamide]?
**A.** ECdelta5 mV: 4900 nM; Threshold Shift: 12 mV

**Q.** Which “ECdelta5 mV” value does the source give for `Cn1ccc(CNC(=O)c2ccn(S(=O)(=O)c3ccc(F)cc3)c2)n1` [Compound 63, 1-(4-fluorobenzene-1-sulfonyl)-N-[(1-methyl-1H-pyrazol-3-yl)methyl]-1H-pyrrole-3-carboxamide] here?
**A.** The value was 2200 nM.

**Q.** What about the “Threshold Shift” value of the same molecule?
**A.** The value was 13 mV.

**Q.** Which results are given for `O=C(NCc1cnccn1)c1ccn(S(=O)(=O)c2ccc(F)cc2)c1` [Compound 64, 1-(4-fluorobenzene-1-sulfonyl)-N-[(pyrazin-2-yl)methyl]-1H-pyrrole-3-carboxamide]?
**A.** ECdelta5 mV: 4400 nM; Threshold Shift: 13 mV

**Q.** What does the source list for `Cc1noc(CNC(=O)c2ccn(S(=O)(=O)c3ccc(F)cc3)c2)n1` [Compound 65, 1-(4-fluorobenzene-1-sulfonyl)-N-[(3-methyl-1,2,4-oxadiazol-5-yl)methyl]-1H-pyrrole-3-carboxamide]?
**A.** ECdelta5 mV: 4200 nM; Threshold Shift: 14 mV

**Q.** With `COc1ccc(S(=O)(=O)n2ccc(C(=O)NCc3ccn(C)n3)c2)cc1` [Compound 66, 1-(4-methoxybenzene-1-sulfonyl)-N-[(1-methyl-1H-pyrazol-3-yl)methyl]-1H-pyrrole-3-carboxamide] as the molecule, how does the “ECdelta5 mV” value read?
**A.** Its value is 1400 nM.

**Q.** And the “Threshold Shift” value?
**A.** Its value is 18 mV.

**Q.** `COc1ccc(S(=O)(=O)n2ccc(C(=O)NCc3cnccn3)c2)cc1` [Compound 67, 1-(4-methoxybenzene-1-sulfonyl)-N-[(pyrazin-2-yl)methyl]-1H-pyrrole-3-carboxamide] was tested. Which “ECdelta5 mV” value did it give?
**A.** Its value is 2200 nM.

**Q.** What about the “Threshold Shift” value of the same molecule?
**A.** The value was 23 mV.

**Q.** With `COc1ccc(S(=O)(=O)n2ccc(C(=O)NCc3nc(C)no3)c2)cc1` [Compound 68, 1-(4-methoxybenzene-1-sulfonyl)-N-[(3-methyl-1,2,4-oxadiazol-5-yl)methyl]-1H-pyrrole-3-carboxamide] as the molecule, how does the “ECdelta5 mV” value read?
**A.** The value was 2300 nM.

**Q.** What about the “Threshold Shift” value of the same molecule?
**A.** The value was 21 mV.

**Q.** For `COc1ccc(S(=O)(=O)n2ccc(C(=O)NCc3cnn(C)c3)c2)cc1` [Compound 69, 1-(4-methoxybenzene-1-sulfonyl)-N-[(1-methyl-1H-pyrazol-4-yl)methyl]-1H-pyrrole-3-carboxamide], which “ECdelta5 mV” value is on record?
**A.** The value was 3000 nM.

**Q.** And the “Threshold Shift” value?
**A.** Its value is 18 mV.

**Q.** `COc1ccc(S(=O)(=O)n2ccc(C(=O)NCc3ccc(C)cn3)c2)cc1` [Compound 70, 1-(4-methoxybenzene-1-sulfonyl)-N-[(5-methylpyridin-2-yl)methyl]-1H-pyrrole-3-carboxamide] was tested. Which “ECdelta5 mV” value did it give?
**A.** The value was 1100 nM.

**Q.** What about the “Threshold Shift” value of the same molecule?
**A.** Its value is 17 mV.

**Q.** What does the source list for `COc1ccc(S(=O)(=O)n2ccc(C(=O)NCc3cc(C)no3)c2)cc1` [Compound 71, 1-(4-methoxybenzene-1-sulfonyl)-N-[(3-methyl-1,2-oxazol-5-yl)methyl]-1H-pyrrole-3-carboxamide]?
**A.** ECdelta5 mV: 1800 nM; Threshold Shift: 19 mV

**Q.** Which results are given for `COc1ccc(S(=O)(=O)n2ccc(C(=O)NCc3ncc(C)cn3)c2)cc1` [Compound 72, 1-(4-methoxybenzene-1-sulfonyl)-N-[(5-methylpyrimidin-2-yl)methyl]-1H-pyrrole-3-carboxamide]?
**A.** ECdelta5 mV: 2800 nM; Threshold Shift: 20 mV

**Q.** Which results are given for `COc1ccc(S(=O)(=O)n2ccc(C(=O)NCc3ncc(C)o3)c2)cc1` [Compound 73, 1-(4-methoxybenzene-1-sulfonyl)-N-[(5-methyl-1,3-oxazol-2-yl)methyl]-1H-pyrrole-3-carboxamide]?
**A.** ECdelta5 mV: 2100 nM; Threshold Shift: 13 mV

**Q.** What does the source list for `Cc1ccccc1S(=O)(=O)n1ccc(C(=O)NCc2ccn(C)n2)c1` [Compound 74, 1-(2-methylbenzene-1-sulfonyl)-N-[(1-methyl-1H-pyrazol-3-yl)methyl]-1H-pyrrole-3-carboxamide]?
**A.** ECdelta5 mV: 2100 nM; Threshold Shift: 21 mV

**Q.** Which results are given for `Cc1noc(CNC(=O)c2ccn(S(=O)(=O)c3ccccc3C)c2)n1` [Compound 75, 1-(2-methylbenzene-1-sulfonyl)-N-[(3-methyl-1,2,4-oxadiazol-5-yl)methyl]-1H-pyrrole-3-carboxamide]?
**A.** ECdelta5 mV: 3200 nM; Threshold Shift: 14 mV

**Q.** How did the “ECdelta5 mV” value turn out when `Cc1ccccc1S(=O)(=O)n1ccc(C(=O)NCc2cnn(C)c2)c1` [Compound 76, 1-(2-methylbenzene-1-sulfonyl)-N-[(1-methyl-1H-pyrazol-4-yl)methyl]-1H-pyrrole-3-carboxamide] was run?
**A.** The value was 3600 nM.

**Q.** And the “Threshold Shift” value?
**A.** The value was 17 mV.

**Q.** Which results are given for `Cc1ccc(CNC(=O)c2ccn(S(=O)(=O)c3ccccc3C)c2)nc1` [Compound 77, 1-(2-methylbenzene-1-sulfonyl)-N-[(5-methylpyridin-2-yl)methyl]-1H-pyrrole-3-carboxamide]?
**A.** ECdelta5 mV: 3300 nM; Threshold Shift: 12 mV

**Q.** Which results are given for `Cc1cc(CNC(=O)c2ccn(S(=O)(=O)c3ccccc3C)c2)on1` [Compound 78, 1-(2-methylbenzene-1-sulfonyl)-N-[(3-methyl-1,2-oxazol-5-yl)methyl]-1H-pyrrole-3-carboxamide]?
**A.** ECdelta5 mV: 1900 nM; Threshold Shift: 17 mV

**Q.** With `Cc1cnc(CNC(=O)c2ccn(S(=O)(=O)c3ccccc3C)c2)o1` [Compound 80, 1-(2-methylbenzene-1-sulfonyl)-N-[(5-methyl-1,3-oxazol-2-yl)methyl]-1H-pyrrole-3-carboxamide] as the molecule, how does the “ECdelta5 mV” value read?
**A.** The value was 2800 nM.

**Q.** And the “Threshold Shift” value?
**A.** The value was 12 mV.

**Q.** Which results are given for `O=C(NCc1cnccn1)c1ccn(S(=O)(=O)c2ccc(Cl)cc2)c1` [Compound 81, 1-(4-chlorobenzene-1-sulfonyl)-N-[(pyrazin-2-yl)methyl]-1H-pyrrole-3-carboxamide]?
**A.** ECdelta5 mV: 1000 nM; Threshold Shift: 28 mV
